Laboratory results as given in US6967201B1, “Benzofurylpiperazines and benzofurylhomopiperazines: serotonin agonists” (Eli Lilly and Company, priority 1999, dated 2005).

melting point | SMILES
191 °C (dec.) | C[C@H]1CN(c2ccc(F)c3ccoc23)CCN1.O=C(O)C(=O)O
162 to 165 °C | CC1(C)CNCCN1c1cc(F)cc2ccoc12.O=C(O)/C=C/C(=O)O
192 °C (dec.) | C[C@@H]1CN(c2ccc(F)c3ccoc23)CCN1.O=C(O)C(=O)O
